Laboratory results published in patent US9051311B2, “Sulfamide sodium channel inhibitors” (AMGEN INC., priority 2012, dated 2015).
Counter-ions that a name gives are not always drawn.

Experiments:
Nav 1.7 [1] = biological target: T1, Nav 1.7 (Homo sapiens (Human), UniProt Q15858); test: Nav 1.7 IonWorks Quattro (IWQ) in vitro assay, population patch-clamp; format: cell-based; conditions: 293 cells stably transfected with Nav 1.7; block at 26th pulse to −20 mV;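 note: cells held at −110 mV for 3 s, then 26 pulses of 150 ms at 5 Hz, leak-corrected peak current, percent block measured before and after compound, 3–8 min exposure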
Method: (§1) Nav 1.7 and Nav 1.5 Ion Works Quattro (IWQ) In Vitro Assays
(§2) 293 cells stably transfected with either Nav 1.7 or with Nav 1.5 were recorded in population patch-clamp mode with the IonWorks® Quattro automated electrophysiology system in accordance with the manufacturer's specifications (Molecular Devices, LLC, Sunnyvale, Calif.). Sodium channel currents were measured in response to a train of depolarizations that induced successively greater inactivation.
(§3) Cells were held at −110 mV for three seconds (Nav 1.7) or half a second (Nav 1.5) from a holding voltage of −15 mV, then put through a series of 26 pulses of 150 msec duration to −20 mV at a frequency of 5 Hz. Cells were then left unclamped for a period of 3 to 8 minutes while a single concentration of test compound was added. Cells were then reclamped and put through the same voltage protocol. Current at the end of the 26th pulse to −20 mV was subtracted from the peak current evoked by the 26th pulse to −20 mV to correct for leak current. Percent block was calculated for each concentration in duplicate, and IC50 curves were fitted to percent block as a function of concentration.

Nav 1.7 [2] = biological target: T1, Nav 1.7; test: Nav 1.7 in vitro PatchExpress (PX) assay, whole cell voltage clamp; format: cell-based; conditions: 293 cells stably transfected with human Nav1.7; partially inactivated state (20 to 50% inactivation)
Method: Nav 1.7 In Vitro PatchExpress (PX) Assay
293 cells stably transfected with human Nav1.7 were recorded in whole cell voltage clamp mode with the PatchXpress automated electrophysiology system (Molecular Devices, LLC, Sunnyvale, Calif.). Compound effects were measured on a partially inactivated state of the sodium channel. Cells were clamped to a holding potential yielding 20 to 50% inactivation. To elicit sodium current, channels were activated by pulsing to −10 mV for 20 msec. This voltage protocol was repeated at a rate of 0.1 Hz throughout the experiment. A single concentration of test compound was applied to cells for a duration of 3 minutes. Peak sodium current was measured at the end of the compound addition period to determine percent inhibition.

Nav 1.5 = Nav 1.5 (Homo sapiens (Human), UniProt Q14524); test: cell-based;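 note: HEK293 cells stably expressing Nav1.5, sodium current at the 26th of 26 pulses to −20 mV (150 ms, 5 Hz) after compound versus before, leak-corrected, 3–8 min exposure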
Sequence of Nav 1.5 (Q14524 whole entry): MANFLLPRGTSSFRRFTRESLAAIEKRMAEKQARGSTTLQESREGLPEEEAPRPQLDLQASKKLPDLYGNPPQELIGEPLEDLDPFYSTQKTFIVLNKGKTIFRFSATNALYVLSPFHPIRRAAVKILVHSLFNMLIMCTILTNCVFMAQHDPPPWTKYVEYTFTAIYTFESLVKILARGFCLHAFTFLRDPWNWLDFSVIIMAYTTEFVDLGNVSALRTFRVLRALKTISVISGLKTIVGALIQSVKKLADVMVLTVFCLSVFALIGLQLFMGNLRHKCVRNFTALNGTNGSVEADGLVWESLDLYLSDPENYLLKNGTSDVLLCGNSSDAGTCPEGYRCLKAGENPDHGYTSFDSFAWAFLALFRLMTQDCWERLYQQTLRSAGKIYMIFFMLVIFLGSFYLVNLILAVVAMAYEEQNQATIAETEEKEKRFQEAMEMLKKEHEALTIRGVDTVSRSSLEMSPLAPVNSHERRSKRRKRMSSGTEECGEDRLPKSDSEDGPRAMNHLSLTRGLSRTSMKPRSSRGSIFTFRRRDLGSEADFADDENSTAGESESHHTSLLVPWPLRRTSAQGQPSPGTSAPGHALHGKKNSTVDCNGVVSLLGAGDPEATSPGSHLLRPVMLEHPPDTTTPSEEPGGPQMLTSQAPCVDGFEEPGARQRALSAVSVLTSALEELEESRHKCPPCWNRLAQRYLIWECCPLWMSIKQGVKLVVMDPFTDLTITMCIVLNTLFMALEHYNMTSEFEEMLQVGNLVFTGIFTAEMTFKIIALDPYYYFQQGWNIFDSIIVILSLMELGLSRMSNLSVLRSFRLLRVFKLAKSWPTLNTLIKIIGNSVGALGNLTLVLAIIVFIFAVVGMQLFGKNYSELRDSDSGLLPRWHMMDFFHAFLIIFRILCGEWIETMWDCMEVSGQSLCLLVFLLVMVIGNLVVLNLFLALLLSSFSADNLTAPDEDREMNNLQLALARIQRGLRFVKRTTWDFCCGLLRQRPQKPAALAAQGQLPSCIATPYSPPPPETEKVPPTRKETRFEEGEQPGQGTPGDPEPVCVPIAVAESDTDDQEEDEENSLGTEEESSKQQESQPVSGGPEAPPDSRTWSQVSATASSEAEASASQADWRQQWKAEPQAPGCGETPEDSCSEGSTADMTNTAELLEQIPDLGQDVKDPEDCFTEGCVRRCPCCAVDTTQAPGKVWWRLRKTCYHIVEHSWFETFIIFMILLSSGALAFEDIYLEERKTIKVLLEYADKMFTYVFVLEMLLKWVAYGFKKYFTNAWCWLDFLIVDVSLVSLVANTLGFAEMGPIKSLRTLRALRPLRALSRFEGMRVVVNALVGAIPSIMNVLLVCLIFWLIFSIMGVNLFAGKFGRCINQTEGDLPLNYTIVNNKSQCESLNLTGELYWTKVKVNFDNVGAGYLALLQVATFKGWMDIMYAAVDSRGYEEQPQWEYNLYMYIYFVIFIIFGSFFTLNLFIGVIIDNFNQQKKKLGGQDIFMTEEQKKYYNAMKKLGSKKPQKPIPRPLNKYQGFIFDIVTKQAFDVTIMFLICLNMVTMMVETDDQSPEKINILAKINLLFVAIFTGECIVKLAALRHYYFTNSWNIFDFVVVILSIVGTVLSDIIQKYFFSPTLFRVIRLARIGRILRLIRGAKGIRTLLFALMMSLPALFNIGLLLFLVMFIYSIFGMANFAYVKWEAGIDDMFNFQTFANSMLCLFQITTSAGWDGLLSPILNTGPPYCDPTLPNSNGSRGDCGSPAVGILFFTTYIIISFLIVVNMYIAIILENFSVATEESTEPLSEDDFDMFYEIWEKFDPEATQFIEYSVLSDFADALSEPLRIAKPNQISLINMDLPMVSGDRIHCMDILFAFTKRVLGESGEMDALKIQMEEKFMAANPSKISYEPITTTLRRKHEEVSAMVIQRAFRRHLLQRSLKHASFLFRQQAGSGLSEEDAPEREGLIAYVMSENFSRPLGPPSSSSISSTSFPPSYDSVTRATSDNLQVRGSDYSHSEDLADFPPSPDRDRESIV
Method: as §1, §2, §3

T1 sequence (Q15858 whole entry): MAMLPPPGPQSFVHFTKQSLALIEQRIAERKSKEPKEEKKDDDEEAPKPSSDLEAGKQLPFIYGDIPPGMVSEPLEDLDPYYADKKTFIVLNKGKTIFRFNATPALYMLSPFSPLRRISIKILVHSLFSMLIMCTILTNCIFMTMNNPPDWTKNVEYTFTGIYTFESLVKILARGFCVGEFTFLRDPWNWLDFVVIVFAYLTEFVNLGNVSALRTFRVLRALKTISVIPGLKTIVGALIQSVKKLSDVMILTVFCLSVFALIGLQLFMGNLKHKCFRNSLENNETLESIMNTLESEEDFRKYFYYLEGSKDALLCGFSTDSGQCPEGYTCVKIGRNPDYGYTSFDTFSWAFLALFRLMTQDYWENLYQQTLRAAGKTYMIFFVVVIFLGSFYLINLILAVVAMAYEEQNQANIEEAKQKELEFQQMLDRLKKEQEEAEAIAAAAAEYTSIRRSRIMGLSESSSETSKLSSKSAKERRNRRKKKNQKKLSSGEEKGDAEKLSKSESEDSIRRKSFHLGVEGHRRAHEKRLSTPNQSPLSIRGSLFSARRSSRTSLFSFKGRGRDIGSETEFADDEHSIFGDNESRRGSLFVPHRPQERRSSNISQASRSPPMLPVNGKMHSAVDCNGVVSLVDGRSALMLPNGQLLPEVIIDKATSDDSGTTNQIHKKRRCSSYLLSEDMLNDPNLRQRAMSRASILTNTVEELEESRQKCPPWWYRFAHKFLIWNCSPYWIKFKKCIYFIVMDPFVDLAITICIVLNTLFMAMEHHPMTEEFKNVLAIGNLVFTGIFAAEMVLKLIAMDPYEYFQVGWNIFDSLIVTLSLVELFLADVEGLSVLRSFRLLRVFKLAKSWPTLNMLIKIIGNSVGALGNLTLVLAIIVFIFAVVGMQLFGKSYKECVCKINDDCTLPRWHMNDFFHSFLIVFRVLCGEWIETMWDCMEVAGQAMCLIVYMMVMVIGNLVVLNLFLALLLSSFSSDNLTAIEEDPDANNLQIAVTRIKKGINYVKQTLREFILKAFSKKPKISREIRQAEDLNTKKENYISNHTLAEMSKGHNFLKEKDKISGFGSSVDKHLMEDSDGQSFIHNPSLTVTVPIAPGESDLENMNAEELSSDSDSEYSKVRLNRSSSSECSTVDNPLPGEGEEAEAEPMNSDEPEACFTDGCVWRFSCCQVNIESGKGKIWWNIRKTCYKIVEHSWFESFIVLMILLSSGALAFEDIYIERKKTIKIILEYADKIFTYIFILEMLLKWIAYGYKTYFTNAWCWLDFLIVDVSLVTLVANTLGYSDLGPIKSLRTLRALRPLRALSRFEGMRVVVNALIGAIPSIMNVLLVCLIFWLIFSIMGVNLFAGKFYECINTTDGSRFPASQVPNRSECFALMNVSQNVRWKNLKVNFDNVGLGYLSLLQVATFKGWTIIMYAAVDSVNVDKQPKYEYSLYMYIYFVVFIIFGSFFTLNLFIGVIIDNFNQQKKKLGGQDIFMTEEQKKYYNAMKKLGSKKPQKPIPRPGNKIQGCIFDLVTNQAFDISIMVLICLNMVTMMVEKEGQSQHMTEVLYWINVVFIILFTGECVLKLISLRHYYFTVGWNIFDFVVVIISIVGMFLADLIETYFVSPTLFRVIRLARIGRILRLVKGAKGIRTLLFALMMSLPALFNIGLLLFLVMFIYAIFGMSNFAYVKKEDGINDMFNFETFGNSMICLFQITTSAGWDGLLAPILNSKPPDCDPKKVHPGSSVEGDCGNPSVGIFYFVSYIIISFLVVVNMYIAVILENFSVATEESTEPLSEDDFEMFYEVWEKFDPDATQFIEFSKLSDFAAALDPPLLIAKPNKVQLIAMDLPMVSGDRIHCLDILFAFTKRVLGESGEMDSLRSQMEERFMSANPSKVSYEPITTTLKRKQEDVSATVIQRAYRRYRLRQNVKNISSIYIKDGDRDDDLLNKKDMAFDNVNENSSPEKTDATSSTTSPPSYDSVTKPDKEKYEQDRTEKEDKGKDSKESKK

IC50 (Nav 1.7 [1]) [µM] | IC50 (Nav 1.7 [2]) [µM] | SMILES | IC50 (Nav 1.5) [µM]
0.217 | 0.64 | O=S(=O)(Nc1ncns1)N1CCc2c(cccc2-c2ccc(C(F)(F)F)cc2-c2ccncc2)C1 [Example 2, 5-(2-(Pyridin-4-yl)-4-(trifluoromethyl)phenyl)-N-(1,2,4-thiadiazol-5-yl)-3,4-dihydroisoquinoline-2(1H)-sulfonamide] | > 10
0.125 | 0.67 | COc1ccc(OC)c(-c2cccc3c2CCN(S(=O)(=O)Nc2ncns2)C3)c1 [Example 27, 5-(2,5-Dimethoxyphenyl)-N-(1,2,4-thiadiazol-5-yl)-3,4-dihydroisoquinoline-2(1H)-sulfonamide] | > 10
0.059 | 0.56 | COc1cc(C2CC2)ccc1-c1nccc2c1CCN(S(=O)(=O)Nc1ncns1)C2 [Example 47, 5-(4-Cyclopropyl-2-methoxyphenyl)-N-(1,2,4-thiadiazol-5-yl)-3,4-dihydro-2,6-naphthyridine-2(1H)-sulfonamide] | > 10
0.0675 | 0.87 | COc1cc(C2CC2)ccc1-c1cccc2c1CCN(S(=O)(=O)Nc1ncns1)C2 [Example 45, 5-(4-Cyclopropyl-2-methoxyphenyl)-N-(1,2,4-thiadiazol-5-yl)-3,4-dihydroisoquinoline-2(1H)-sulfonamide] | > 10
0.0783 | 0.09 | CN1CC=C(c2cc(C(F)(F)F)ccc2-c2cccc3c2CCN(S(=O)(=O)Nc2ncns2)C3)CC1 [Example 15, 5-(2-(1-Methyl-1,2,3,6-tetrahydropyridin-4-yl)-4-(trifluoromethyl)phenyl)-N-(1,2,4-thiadiazol-5-yl)-3,4-dihydroisoquinoline-2(1H)-sulfonamide] | > 10
5.47 | 7.46 | O=S(=O)(Nc1ncns1)N1CCc2c(cccc2-c2ccc(Cl)cc2)C1 [Example 10] | > 10
4.67 | > 30 | COc1cccc(OC)c1-c1cccc2c1CCN(S(=O)(=O)Nc1ncns1)C2 [Example 28, 5-(2,6-Dimethoxyphenyl)-N-(1,2,4-thiadiazol-5-yl)-3,4-dihydroisoquinoline-2(1H)-sulfonamide] | > 10
19.1 | – | O=S(=O)(Nc1ncns1)N1CCc2c(cccc2-c2cccc3[nH]ncc23)C1 [Example 51, 5-(1H-Indazol-4-yl)-N-(1,2,4-thiadiazol-5-yl)-3,4-dihydroisoquinoline-2(1H)-sulfonamide] | > 10
3.87 | > 30 | O=S(=O)(Nc1ncns1)N1CCc2c(cccc2-c2cccc3c2CCNC3)C1 [Example 13, N-(1,2,4-Thiadiazol-5-yl)-1′,2′,3,3′,4,4′-hexahydro-[5,5′-biisoquinoline]-2(1H)-sulfonamide hydrochloride] | > 10
2.68 | 4.91 | O=S(=O)(Nc1ncns1)N1CCc2c(cccc2-c2cccc3ccccc23)C1 [Example 24, 5-(Naphthalen-1-yl)-N-(1,2,4-thiadiazol-5-yl)-3,4-dihydroisoquinoline-2(1H)-sulfonamide] | > 10
– | 0.81 | COc1cc(C(F)(F)F)ccc1-c1ncnc2c1CCN(S(=O)(=O)Nc1ncc(F)s1)C2 [Example 60, N-(5-fluorothiazol-2-yl)-4-(2-methoxy-4-(trifluoromethyl)phenyl)-5,6-dihydropyrido[3,4-d]pyrimidine-7(8H)-sulfonamide] | –
0.137 | 0.56 | COc1cc(F)ccc1-c1cccc2c1CCN(S(=O)(=O)Nc1ncns1)C2 [Example 30, 5-(4-Fluoro-2-methoxyphenyl)-N-(1,2,4-thiadiazol-5-yl)-3,4-dihydroisoquinoline-2(1H)-sulfonamide] | > 10
0.019 | 0.94 | COc1cc(C(F)(F)F)ccc1-c1nccc2c1CCN(S(=O)(=O)Nc1ncns1)C2 [Example 46, 5-(2-Methoxy-4-(trifluoromethyl)phenyl)-N-(1,2,4-thiadiazol-5-yl)-3,4-dihydro-2,6-naphthyridine-2(1H)-sulfonamide] | > 10
0.395 | 7.34 | CN1CCN(c2cc(C(F)(F)F)ccc2-c2cccc3c2CCN(S(=O)(=O)Nc2ncc(F)s2)C3)CC1 [Example 41, N-(5-Fluorothiazol-2-yl)-5-(2-(4-methylpiperazin-1-yl)-4-(trifluoromethyl)phenyl)-3,4-dihydroisoquinoline-2(1H)-sulfonamide] | > 10
15.8 | 16.5 | CC(C)(C)OC(=O)N1CCc2c(cccc2-c2cccc3c2CCN(S(=O)(=O)Nc2ncns2)C3)C1 [Example 58, tert-Butyl 2′-(N-(1,2,4-thiadiazol-5-yl)sulfamoyl)-1′,2′,3,3′,4,4′-hexahydro-[5,5′-biisoquinoline]-2(1H)-carboxylate] | > 10
0.315 | 0.17 | O=S(=O)(Nc1ncc(F)s1)N1CCc2c(cccc2-c2ccc(C(F)(F)F)cc2C2CCNCC2)C1 [Example 35, N-(5-Fluorothiazol-2-yl)-5-(2-(piperidin-4-yl)-4-(trifluoromethyl)phenyl)-3,4-dihydroisoquinoline-2(1H)-sulfonamide hydrochloride] | > 10
4.1 | 6.11 | COc1cc(C(F)(F)F)ccc1-c1cccc2c1C(C)CN(S(=O)(=O)Nc1ncns1)C2 (racemic) [Example 48, 5-(2-Methoxy-4-(trifluoromethyl)phenyl)-4-methyl-N-(1,2,4-thiadiazol-5-yl)-3,4-dihydroisoquinoline-2(1H)-sulfonamide] | 7.26
0.0645 | 0.05 | O=S(=O)(Nc1ncns1)N1CCc2c(cccc2-c2ccc(C(F)(F)F)cc2C2=CCNC2)C1 [Example 34, 5-(2-(2,5-Dihydro-1H-pyrrol-3-yl)-4-(trifluoromethyl)phenyl)-N-(1,2,4-thiadiazol-5-yl)-3,4-dihydroisoquinoline-2(1H)-sulfonamide hydrochloride] | > 10
2.41 | 1.33 | O=S(=O)(Nc1ncns1)N1CCc2c(cccc2-c2ccc(Cl)cc2Cl)C1 [Example 12, 5-(2,4-Dichlorophenyl)-N-(1,2,4-thiadiazol-5-yl)-3,4-dihydroisoquinoline-2(1H)-sulfonamide] | > 10
– | 6.19 | COc1cc(C(F)(F)F)ccc1-c1ccnc2c1CCN(S(=O)(=O)Nc1ccncn1)C2 [Example 64, 4-(2-methoxy-4-(trifluoromethyl)phenyl)-N-4-pyrimidinyl-5,8-dihydro-1,7-naphthyridine-7(6H)-sulfonamide] | –
6.9 | – | O=S(=O)(Nc1ncns1)N1CCc2c(cccc2-c2cncc3ccccc23)C1 [Example 25, N-(1,2,4-Thiadiazol-5-yl)-3′,4′-dihydro-[4,5′-biisoquinoline]-2′(1′H)-sulfonamide] | > 10
– | 11.2 | COc1ccc(-c2ccc(F)c(F)c2)cc1-c1cccc2c1CCN(S(=O)(=O)Nc1nncs1)C2 [Example 63, 5-(3′,4′-difluoro-4-methoxy-[1,1′-biphenyl]-3-yl)-N-(1,3,4-thiadiazol-2-yl)-3,4-dihydroisoquinoline-2(1H)-sulfonamide] | –
9.44 | – | COc1cc(C(F)(F)F)ccc1-c1cccc2c1CN(S(=O)(=O)Nc1ncns1)CC2 [Example 55, 8-(2-Methoxy-4-(trifluoromethyl)phenyl)-N-(1,2,4-thiadiazol-5-yl)-3,4-dihydroisoquinoline-2(1H)-sulfonamide] | > 10
7.6 | – | COc1ncccc1-c1cccc2c1CCN(S(=O)(=O)Nc1ncns1)C2 [Example 50, 5-(2-Methoxypyridin-3-yl)-N-(1,2,4-thiadiazol-5-yl)-3,4-dihydroisoquinoline-2(1H)-sulfonamide] | > 10
7.1 | – | CC(C)(C)OC(=O)N1CC=C(c2cccc3c2CCN(S(=O)(=O)Nc2ncns2)C3)CC1 [Example 57, tert-Butyl 4-(2-(N-(1,2,4-thiadiazol-5-yl)sulfamoyl)-1,2,3,4-tetrahydroisoquinolin-5-yl)-5,6-dihydropyridine-1(2H)-carboxylate] | > 10
5.83 | – | COc1cncc(-c2cc(C(F)(F)F)ccc2-c2cccc3c2CCN(S(=O)(=O)Nc2ncns2)C3)c1 [Example 20, 5-(2-(5-Methoxypyridin-3-yl)-4-(trifluoromethyl)phenyl)-N-(1,2,4-thiadiazol-5-yl)-3,4-dihydroisoquinoline-2(1H)-sulfonamide] | > 10
– | 8.05 | COc1cc(-c2ccc(F)c(F)c2)ccc1-c1cccc2c1CCN(S(=O)(=O)Nc1nncs1)C2 [Example 62, 5-(3′,4′-difluoro-3-methoxy-[1,1′-biphenyl]-4-yl)-N-(1,3,4-thiadiazol-2-yl)-3,4-dihydroisoquinoline-2(1H)-sulfonamide] | –
14.9 | – | CN1CC=C(c2cc(Cl)cc(F)c2-c2cccc3c2CCN(S(=O)(=O)Nc2ncc(F)s2)C3)CC1 [Example 54, 5-(4-Chloro-2-fluoro-6-(1-methyl-1,2,3,6-tetrahydropyridin-4-yl)phenyl)-N-(5-fluorothiazol-2-yl)-3,4-dihydroisoquinoline-2(1H)-sulfonamide] | > 10
1.8 | – | Cc1cncc(-c2cc(C(F)(F)F)ccc2-c2cccc3c2CCN(S(=O)(=O)Nc2ncns2)C3)c1 [Example 21, 5-(2-(5-Methylpyridin-3-yl)-4-(trifluoromethyl)phenyl)-N-(1,2,4-thiadiazol-5-yl)-3,4-dihydroisoquinoline-2(1H)-sulfonamide] | 4.08
